Columns and labels:
hSTING-H232 = biological target: T1, hSTING-H232 (Homo sapiens, UniProt Q86WV6); assay: HTRF STING competition binding (cGAMP displacement) assay, hSTING-H232; conditions: for IC50: HTRF displacement assay, means from at least three repeated experiments; for binding to hSTING-H232 in displacement assay, in words: concentrations up to 100 μM
T1 construct: purchased Cisbio
Protocol: (§1) Mouse STING binding kits, human STING WT binding kits, human AQ STING binding kits, human H232 STING binding kits were purchased from Cisbio. […] QUANTI-Blue solution, QUANTI-Luc, 2′,3′-cGAMP were purchased from Invivogen. […] CellTiter-Glo luminescent cell viability assay kit was obtained from Promega.
(§2) According to the instructions of STING binding kits, the following solutions were successively added to each well in the 384-well plate: 5 μL of the detection compounds or 2′,3′-cGAMP (positive control) with different concentrations or diluent (negative control); 5 μL of human STING 6His-tagged protein (negative control well was added to detection buffer); 10 μL of STING ligand d2 and Anti 6His-Tb3^+ premixed working solution.

hSTING-AQ = biological target: T2, hSTING-AQ (Homo sapiens, UniProt Q86WV6, G230A/R293Q); assay: HTRF STING competition binding (cGAMP displacement) assay, hSTING-AQ; conditions: for IC50: HTRF displacement assay, means from at least three repeated experiments; for binding to hSTING-AQ in displacement assay, in words: concentrations up to 100 μM
T2 construct: purchased Cisbio
T2 sequence (Q86WV6 whole entry G230A/R293Q): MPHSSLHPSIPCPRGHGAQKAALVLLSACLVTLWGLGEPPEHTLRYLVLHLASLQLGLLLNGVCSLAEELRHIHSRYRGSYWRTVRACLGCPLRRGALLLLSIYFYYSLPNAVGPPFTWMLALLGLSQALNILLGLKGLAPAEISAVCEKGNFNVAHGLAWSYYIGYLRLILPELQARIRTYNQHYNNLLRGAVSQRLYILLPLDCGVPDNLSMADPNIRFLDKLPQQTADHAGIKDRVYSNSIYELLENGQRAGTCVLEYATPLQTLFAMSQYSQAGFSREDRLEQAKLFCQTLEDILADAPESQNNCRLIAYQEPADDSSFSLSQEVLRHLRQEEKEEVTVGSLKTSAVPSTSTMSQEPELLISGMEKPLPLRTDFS
Protocol: as §1, §2

mSTING = biological target: T3, mSTING (Mus musculus, UniProt Q3TBT3); assay: HTRF STING competition binding (cGAMP displacement) assay, mSTING; set-up: purchased Cisbio; conditions: for IC50: HTRF displacement assay, means from at least three repeated experiments; for binding to mSTING in displacement assay, in words: concentrations up to 100 μM
T3 sequence (Q3TBT3 1-378): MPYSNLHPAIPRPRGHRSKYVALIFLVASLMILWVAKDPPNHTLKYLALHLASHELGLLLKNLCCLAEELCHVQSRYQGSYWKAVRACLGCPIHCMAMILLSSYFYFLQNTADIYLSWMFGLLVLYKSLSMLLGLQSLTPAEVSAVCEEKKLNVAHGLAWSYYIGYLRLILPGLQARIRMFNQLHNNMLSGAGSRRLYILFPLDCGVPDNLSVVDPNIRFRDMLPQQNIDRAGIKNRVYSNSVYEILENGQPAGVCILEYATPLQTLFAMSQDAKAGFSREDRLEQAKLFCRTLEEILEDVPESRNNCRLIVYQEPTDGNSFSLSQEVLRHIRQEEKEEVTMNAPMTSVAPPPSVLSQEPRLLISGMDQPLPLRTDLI
Protocol: as §1, §2

hSTING-WT = biological target: T4, hSTING-WT (Homo sapiens, UniProt Q86WV6, H232R); assay: HTRF STING competition binding (cGAMP displacement) assay, hSTING-WT; conditions: for IC50: HTRF displacement assay, means from at least three repeated experiments; for binding to hSTING-WT in displacement assay, in words: concentrations up to 100 μM
T4 construct: purchased Cisbio
T4 sequence (Q86WV6 whole entry H232R): as the sequence (Q86WV6 whole entry G230A/R293Q) above, with A230G, H232R, Q293R counted along it
Protocol: as §1, §2

THP-1 cells = assay: CellTiter-Glo luminescent cell viability assay, THP-1 cells; conditions: at 10 μM, 48 h
293T cells = assay: CellTiter-Glo luminescent cell viability assay, 293T cells; conditions: at 10 μM, 48 h

T1 sequence (Q86WV6 135-379 limits assumed): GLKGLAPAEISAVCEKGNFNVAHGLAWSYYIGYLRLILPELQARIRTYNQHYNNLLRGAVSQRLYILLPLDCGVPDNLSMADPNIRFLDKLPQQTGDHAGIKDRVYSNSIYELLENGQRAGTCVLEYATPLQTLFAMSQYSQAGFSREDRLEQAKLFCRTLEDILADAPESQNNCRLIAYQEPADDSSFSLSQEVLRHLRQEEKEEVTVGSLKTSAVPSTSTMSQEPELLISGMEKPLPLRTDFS

Row | Compound | IC50 (hSTING-H232) [µM] | IC50 (hSTING-AQ) [µM] | IC50 (mSTING) [µM] | IC50 (hSTING-WT) [µM] | binding to hSTING-H232 in displacement assay, in words (hSTING-H232) | binding to hSTING-AQ in displacement assay, in words (hSTING-AQ) | binding to mSTING in displacement assay, in words (mSTING) | binding to hSTING-WT in displacement assay, in words (hSTING-WT) | cytotoxicity, cell viability THP-1 cells (THP-1 cells) | cytotoxicity, cell viability 293T cells (293T cells)
1 | COc1cc2c(=O)c3cc(F)cc4c3n(c2c(C)c1C)C(=O)C4 [Compound 28, 4-fluoro-8-methoxy-9,10-dimethyl-6H-pyrrolo[3,2,1-de]acridine-1,6(2H)-dione] | 62.4 | 55.2 | 61 | 88.1 | – | – | – | – | – | –
2 | COc1cc2c3c(c1)c(=O)c1cc(OC)c(C)c(C)c1n3C(=O)C2 [Compound 29, 4,8-dimethoxy-9,10-dimethyl-6H-pyrrolo[3,2,1-de]acridine-1,6(2H)-dione] | 82.8 | 70.5 | > 100 | > 100 | – | – | – | – | – | –
3 | COc1cc2c(=O)c3cccc(C(=O)O)c3[nH]c2c(C)c1C [Compound 33, 7-methoxy-5,6-dimethyl-9-oxo-9,10-dihydroacridine-4-carboxylic acid] | > 100 | > 100 | > 100 | > 100 | inactive | inactive | inactive | inactive | – | –
4 | COc1cc(C(=O)O)c2[nH]c3c(C)c(C)c(OC)cc3c(=O)c2c1 [Compound 34, 2,7-dimethoxy-5,6-dimethyl-9-oxo-9,10-dihydroacridine-4-carboxylic acid] | > 100 | > 100 | > 100 | > 100 | inactive | inactive | inactive | inactive | – | –
5 | COc1cc2c(=O)c3c(F)ccc(CC(=O)O)c3[nH]c2c(C)c1C [Compound 35] | > 100 | > 100 | > 100 | > 100 | – | – | – | – | – | –
6 | COc1cc2c(=O)c3c(Cl)ccc(CC(=O)O)c3[nH]c2c(C)c1C [Compound 36] | > 100 | > 100 | > 100 | > 100 | – | – | – | – | – | –
7 | COc1cc2c(=O)c3cc(F)cc(CC(=O)O)c3[nH]c2c(C)c1C [Compound 37] | > 100 | > 100 | > 100 | > 100 | – | – | – | – | – | –
8 | COc1cc2c(=O)c3cc(Cl)cc(CC(=O)O)c3[nH]c2c(C)c1C [Compound 38] | > 100 | > 100 | > 100 | > 100 | – | – | – | – | – | –
9 | CCc1ccc(NC(=O)Nc2c[nH]c3ccccc23)cc1 [Compound H151, reference compound] | – | – | – | – | – | – | – | – | significant cytotoxicity | significant cytotoxicity
